Results from the kinase profiling compilation of Christmann-Franck et al. (2016).

Assays:
Experiment in all cases: KINOMEscan competition binding
Conditions in all cases: compound 10.0 µM
BMPR2 (human) = BMPR2 (human) (UniProt Q13873)
[1] = tested on: EGFR (human), P00533 [G719C; 746-750 del]
MAPK9 (human) = MAPK9 (human) (UniProt P45984)
MYO3A (human) = MYO3A (human) (UniProt Q8NEV4)
PTK2 (human) = PTK2 (human) (UniProt Q05397)
PAK4 (human) = PAK4 (human) (UniProt O96013)
PDGFRA (human) = PDGFRA (human) (UniProt P16234)
PRKAA1 (human) = PRKAA1 (human) (UniProt Q13131)
PRKAA1 (human), sequence (Q13131 whole entry, looked up): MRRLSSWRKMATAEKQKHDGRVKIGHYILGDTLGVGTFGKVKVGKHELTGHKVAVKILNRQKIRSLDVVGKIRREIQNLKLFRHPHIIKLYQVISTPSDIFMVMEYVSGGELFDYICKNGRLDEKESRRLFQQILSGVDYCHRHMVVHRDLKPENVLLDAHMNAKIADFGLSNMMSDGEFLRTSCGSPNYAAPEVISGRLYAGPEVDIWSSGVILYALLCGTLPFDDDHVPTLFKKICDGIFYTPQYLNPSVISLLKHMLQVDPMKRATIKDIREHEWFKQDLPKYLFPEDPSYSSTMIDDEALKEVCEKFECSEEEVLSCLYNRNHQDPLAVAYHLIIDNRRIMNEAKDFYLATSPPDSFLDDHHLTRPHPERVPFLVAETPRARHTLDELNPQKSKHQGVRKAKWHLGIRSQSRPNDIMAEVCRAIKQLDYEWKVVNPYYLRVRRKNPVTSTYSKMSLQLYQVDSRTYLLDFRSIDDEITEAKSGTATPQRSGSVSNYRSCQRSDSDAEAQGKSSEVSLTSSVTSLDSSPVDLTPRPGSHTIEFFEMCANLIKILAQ

DCLK1 (human) = DCLK1 (human) (UniProt O15075)
DCLK1 (human), sequence (O15075 whole entry, looked up): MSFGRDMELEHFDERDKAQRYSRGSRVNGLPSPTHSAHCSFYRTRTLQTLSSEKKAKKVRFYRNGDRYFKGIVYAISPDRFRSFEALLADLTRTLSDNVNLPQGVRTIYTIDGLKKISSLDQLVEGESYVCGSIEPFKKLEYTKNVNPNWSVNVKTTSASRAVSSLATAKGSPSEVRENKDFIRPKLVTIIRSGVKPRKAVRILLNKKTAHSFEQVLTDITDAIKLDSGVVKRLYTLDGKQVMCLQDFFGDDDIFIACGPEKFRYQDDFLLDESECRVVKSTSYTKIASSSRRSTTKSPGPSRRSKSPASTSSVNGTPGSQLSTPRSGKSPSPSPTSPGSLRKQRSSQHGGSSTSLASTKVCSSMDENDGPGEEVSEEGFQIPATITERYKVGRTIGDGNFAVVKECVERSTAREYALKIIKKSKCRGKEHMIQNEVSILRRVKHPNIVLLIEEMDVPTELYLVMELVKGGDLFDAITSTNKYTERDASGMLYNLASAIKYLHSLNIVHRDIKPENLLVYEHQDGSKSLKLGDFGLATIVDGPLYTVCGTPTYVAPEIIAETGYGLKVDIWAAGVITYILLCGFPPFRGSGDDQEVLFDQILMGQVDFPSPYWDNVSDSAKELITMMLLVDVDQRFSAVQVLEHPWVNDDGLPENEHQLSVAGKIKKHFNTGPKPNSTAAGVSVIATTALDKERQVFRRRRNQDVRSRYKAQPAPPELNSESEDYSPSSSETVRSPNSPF

MET (human) = MET (human) (UniProt P08581)
[2] = tested on: ABL1 (human), P00519 [F317I]
[3] = tested on: ABL1 (human), P00519 [Q252H]
AKT2 (human) = AKT2 (human) (UniProt P31751)
BMX (human) = BMX (human) (UniProt P51813)
CDC2L2 (human) = CDC2L2 (human) (UniProt Q9UQ88)
CDK11B (human) = CDK11B (human) (UniProt P21127)
CDK14 (human) = CDK14 (human) (UniProt O94921)
CDK14 (human), sequence (O94921 whole entry, looked up): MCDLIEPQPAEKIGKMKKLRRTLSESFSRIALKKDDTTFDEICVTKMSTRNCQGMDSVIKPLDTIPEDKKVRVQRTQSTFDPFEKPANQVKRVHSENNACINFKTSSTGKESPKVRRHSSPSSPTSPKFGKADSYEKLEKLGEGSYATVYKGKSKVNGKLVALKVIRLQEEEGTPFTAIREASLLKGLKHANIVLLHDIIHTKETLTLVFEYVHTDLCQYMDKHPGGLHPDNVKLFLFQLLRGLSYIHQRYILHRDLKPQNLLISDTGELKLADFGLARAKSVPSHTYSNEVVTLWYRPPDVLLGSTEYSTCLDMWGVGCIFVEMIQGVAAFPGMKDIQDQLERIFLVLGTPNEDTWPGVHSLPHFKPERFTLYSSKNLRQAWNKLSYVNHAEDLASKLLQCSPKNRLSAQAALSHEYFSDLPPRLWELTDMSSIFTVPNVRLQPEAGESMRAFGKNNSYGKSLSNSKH

CDK15 (human) = CDK15 (human) (UniProt Q96Q40)
CDK15 (human), sequence (Q96Q40 whole entry, looked up): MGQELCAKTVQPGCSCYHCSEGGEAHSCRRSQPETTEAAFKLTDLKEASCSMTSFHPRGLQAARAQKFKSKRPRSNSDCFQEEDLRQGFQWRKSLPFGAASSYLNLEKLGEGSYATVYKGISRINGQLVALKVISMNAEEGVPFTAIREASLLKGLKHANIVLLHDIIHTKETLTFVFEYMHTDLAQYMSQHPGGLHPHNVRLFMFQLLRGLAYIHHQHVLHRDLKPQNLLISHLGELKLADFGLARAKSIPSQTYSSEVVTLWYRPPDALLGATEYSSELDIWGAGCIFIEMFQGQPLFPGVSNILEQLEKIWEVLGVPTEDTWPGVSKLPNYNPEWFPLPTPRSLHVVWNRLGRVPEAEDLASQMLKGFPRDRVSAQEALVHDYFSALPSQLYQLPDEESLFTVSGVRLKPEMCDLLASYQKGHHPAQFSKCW

CDK17 (human) = CDK17 (human) (UniProt Q00537)
CHEK1 (human) = CHEK1 (human) (UniProt O14757)
ERBB4 (human) = ERBB4 (human) (UniProt Q15303)
FER (human) = FER (human) (UniProt P16591)
FRK (human) = FRK (human) (UniProt P42685)
IGF1R (human) = IGF1R (human) (UniProt P08069)
LIMK2 (human) = LIMK2 (human) (UniProt P53671)
MAP2K2 (human) = MAP2K2 (human) (UniProt P36507)
MAP3K11 (human) = MAP3K11 (human) (UniProt Q16584)
MAPK1 (human) = MAPK1 (human) (UniProt P28482)
MAPK1 (human), sequence (P28482 whole entry, looked up): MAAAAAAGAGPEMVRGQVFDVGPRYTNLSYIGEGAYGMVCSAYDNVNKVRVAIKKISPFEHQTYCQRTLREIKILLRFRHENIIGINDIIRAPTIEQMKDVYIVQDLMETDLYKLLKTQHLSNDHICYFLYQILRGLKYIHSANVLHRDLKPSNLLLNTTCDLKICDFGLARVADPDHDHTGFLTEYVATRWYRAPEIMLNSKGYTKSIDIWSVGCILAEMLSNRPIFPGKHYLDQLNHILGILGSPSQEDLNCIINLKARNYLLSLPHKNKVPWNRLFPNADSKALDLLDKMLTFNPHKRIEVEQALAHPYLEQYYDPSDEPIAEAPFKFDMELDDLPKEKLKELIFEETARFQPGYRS

MARK1 (human) = MARK1 (human) (UniProt Q9P0L2)
MARK4 (human) = MARK4 (human) (UniProt Q96L34)
MUSK (human) = MUSK (human) (UniProt O15146)
NTRK2 (human) = NTRK2 (human) (UniProt Q16620)
NUAK1 (human) = NUAK1 (human) (UniProt O60285)
PAK3 (human) = PAK3 (human) (UniProt O75914)
[4] = tested on: PIK3CA (human), P42336 [E545K]
PRKX (human) = PRKX (human) (UniProt P51817)
PTK6 (human) = PTK6 (human) (UniProt Q13882)
RIPK1 (human) = RIPK1 (human) (UniProt Q13546)
SRMS (human) = SRMS (human) (UniProt Q9H3Y6)
STK32C (human) = STK32C (human) (UniProt Q86UX6)
TSSK1B (human) = TSSK1B (human) (UniProt Q9BXA7)
TSSK1B (human), sequence (Q9BXA7 whole entry, looked up): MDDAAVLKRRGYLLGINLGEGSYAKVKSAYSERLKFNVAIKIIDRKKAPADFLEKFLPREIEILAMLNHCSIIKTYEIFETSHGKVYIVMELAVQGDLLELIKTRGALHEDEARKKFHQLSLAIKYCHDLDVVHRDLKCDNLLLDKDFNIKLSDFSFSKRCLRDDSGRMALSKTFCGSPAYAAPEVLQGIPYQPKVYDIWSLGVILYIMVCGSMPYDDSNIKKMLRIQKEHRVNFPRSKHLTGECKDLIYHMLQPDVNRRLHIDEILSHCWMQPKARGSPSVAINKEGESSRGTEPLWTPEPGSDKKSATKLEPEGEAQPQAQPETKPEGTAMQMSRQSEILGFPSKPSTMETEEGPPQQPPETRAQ

YES1 (human) = YES1 (human) (UniProt P07947)

MYO3A (human), sequence (Q8NEV4 whole entry, looked up): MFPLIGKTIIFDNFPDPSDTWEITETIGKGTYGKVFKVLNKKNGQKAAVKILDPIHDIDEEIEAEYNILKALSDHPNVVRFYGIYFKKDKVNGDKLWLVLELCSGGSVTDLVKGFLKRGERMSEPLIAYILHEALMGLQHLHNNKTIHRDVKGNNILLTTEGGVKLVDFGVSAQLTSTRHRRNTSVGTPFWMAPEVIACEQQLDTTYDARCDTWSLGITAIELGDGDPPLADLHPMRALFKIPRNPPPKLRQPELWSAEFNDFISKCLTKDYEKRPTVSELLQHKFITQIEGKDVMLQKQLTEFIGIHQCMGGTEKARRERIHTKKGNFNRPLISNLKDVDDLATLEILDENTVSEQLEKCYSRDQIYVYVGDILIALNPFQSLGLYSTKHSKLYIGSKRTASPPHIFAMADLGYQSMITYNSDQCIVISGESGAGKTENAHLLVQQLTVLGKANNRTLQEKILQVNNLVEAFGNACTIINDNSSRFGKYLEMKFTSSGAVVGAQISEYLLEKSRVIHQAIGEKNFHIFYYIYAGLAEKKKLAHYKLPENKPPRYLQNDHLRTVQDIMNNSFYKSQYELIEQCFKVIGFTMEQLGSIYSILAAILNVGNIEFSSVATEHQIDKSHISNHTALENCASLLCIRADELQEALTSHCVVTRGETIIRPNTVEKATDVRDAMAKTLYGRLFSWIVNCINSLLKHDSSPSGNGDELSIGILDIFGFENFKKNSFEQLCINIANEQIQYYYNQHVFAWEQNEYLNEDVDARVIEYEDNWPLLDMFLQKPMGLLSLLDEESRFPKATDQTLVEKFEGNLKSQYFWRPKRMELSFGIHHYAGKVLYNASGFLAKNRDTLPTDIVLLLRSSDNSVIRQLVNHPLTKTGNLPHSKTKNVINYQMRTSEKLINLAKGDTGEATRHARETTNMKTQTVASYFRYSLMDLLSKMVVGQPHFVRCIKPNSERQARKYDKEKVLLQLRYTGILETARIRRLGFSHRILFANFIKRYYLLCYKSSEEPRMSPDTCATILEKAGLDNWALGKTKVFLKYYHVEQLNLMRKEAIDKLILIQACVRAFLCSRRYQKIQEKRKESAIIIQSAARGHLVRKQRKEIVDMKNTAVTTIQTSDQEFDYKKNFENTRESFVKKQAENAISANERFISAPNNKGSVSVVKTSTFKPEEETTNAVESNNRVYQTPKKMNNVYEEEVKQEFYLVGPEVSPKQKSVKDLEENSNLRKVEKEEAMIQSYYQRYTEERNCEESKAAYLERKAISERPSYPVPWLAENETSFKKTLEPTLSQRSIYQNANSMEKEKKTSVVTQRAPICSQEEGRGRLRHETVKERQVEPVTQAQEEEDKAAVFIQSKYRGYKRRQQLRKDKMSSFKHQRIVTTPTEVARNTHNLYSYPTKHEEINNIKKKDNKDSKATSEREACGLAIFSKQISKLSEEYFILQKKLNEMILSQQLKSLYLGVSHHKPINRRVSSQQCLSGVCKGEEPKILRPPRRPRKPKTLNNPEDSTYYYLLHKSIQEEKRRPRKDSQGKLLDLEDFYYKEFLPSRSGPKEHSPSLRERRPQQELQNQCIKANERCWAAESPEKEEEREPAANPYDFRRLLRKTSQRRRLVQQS
MAPK9 (human), sequence (P45984 whole entry, looked up): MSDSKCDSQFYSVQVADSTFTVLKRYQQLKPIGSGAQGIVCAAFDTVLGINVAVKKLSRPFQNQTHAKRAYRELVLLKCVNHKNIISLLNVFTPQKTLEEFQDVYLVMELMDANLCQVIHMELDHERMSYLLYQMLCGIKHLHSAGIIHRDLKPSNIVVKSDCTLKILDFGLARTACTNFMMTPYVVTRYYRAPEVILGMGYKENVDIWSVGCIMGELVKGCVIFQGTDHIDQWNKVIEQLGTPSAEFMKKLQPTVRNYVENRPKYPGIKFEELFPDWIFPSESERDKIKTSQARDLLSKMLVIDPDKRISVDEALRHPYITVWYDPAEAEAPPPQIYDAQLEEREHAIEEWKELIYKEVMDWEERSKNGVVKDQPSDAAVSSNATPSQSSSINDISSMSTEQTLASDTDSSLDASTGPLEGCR

SMILES: Nc1cccc(-c2cc(/C=C3\SC(=O)NC3=O)c[nH]c2=O)c1
- kinase still bound, per cent of control (BMPR2 (human)): 29%
- kinase still bound, per cent of control [1]: 30%

SMILES: O=C1NC(=S)S/C1=C\c1ccc(-c2cncc3ccccc23)o1
- kinase still bound, per cent of control (MAPK9 (human)): 20%
- kinase still bound, per cent of control (MYO3A (human)): 19%
- kinase still bound, per cent of control (PTK2 (human)): 28%

SMILES: N=C1NC(=O)/C(=C/c2ccc(-c3cncc4ccccc34)o2)S1
- kinase still bound, per cent of control (MAPK9 (human)): 14%
- kinase still bound, per cent of control (MYO3A (human)): 24%
- kinase still bound, per cent of control (PAK4 (human)): 18%
- kinase still bound, per cent of control (PDGFRA (human)): 26%
- kinase still bound, per cent of control (PRKAA1 (human)): 24%

SMILES: CN1C(=O)[C@H]2CCC[C@H]2N(C2CCCC2)c2nc(Nc3ccc(C(N)=O)cc3)ncc21
- kinase still bound, per cent of control (BMPR2 (human)): 23%
- kinase still bound, per cent of control (DCLK1 (human)): 5.8%
- kinase still bound, per cent of control (MET (human)): 4.5%
- kinase still bound, per cent of control (PRKAA1 (human)): 31%

SMILES: CN1C(=O)c2ccccc2N(C)c2nc(Nc3ccc(N4CCC(O)CC4)cc3)ncc21
- kinase still bound, per cent of control [2]: 28%
- kinase still bound, per cent of control [3]: 2.1%
- kinase still bound, per cent of control (AKT2 (human)): 100%
- kinase still bound, per cent of control (BMPR2 (human)): 78%
- kinase still bound, per cent of control (BMX (human)): 89%
- kinase still bound, per cent of control (CDC2L2 (human)): 100%
- kinase still bound, per cent of control (CDK11B (human)): 100%
- kinase still bound, per cent of control (CDK14 (human)): 100%
- kinase still bound, per cent of control (CDK15 (human)): 100%
- kinase still bound, per cent of control (CDK17 (human)): 90%
- kinase still bound, per cent of control (CHEK1 (human)): 76%
- kinase still bound, per cent of control (DCLK1 (human)): 1.8%
- kinase still bound, per cent of control [1]: 100%
- kinase still bound, per cent of control (ERBB4 (human)): 100%
- kinase still bound, per cent of control (FER (human)): 100%
- kinase still bound, per cent of control (FRK (human)): 70%
- kinase still bound, per cent of control (IGF1R (human)): 100%
- kinase still bound, per cent of control (LIMK2 (human)): 100%
- kinase still bound, per cent of control (MAP2K2 (human)): 100%
- kinase still bound, per cent of control (MAP3K11 (human)): 100%
- kinase still bound, per cent of control (MAPK1 (human)): 100%
- kinase still bound, per cent of control (MAPK9 (human)): 100%
- kinase still bound, per cent of control (MARK1 (human)): 59%
- kinase still bound, per cent of control (MARK4 (human)): 66%
- kinase still bound, per cent of control (MET (human)): 77%
- kinase still bound, per cent of control (MUSK (human)): 100%
- kinase still bound, per cent of control (MYO3A (human)): 85%
- kinase still bound, per cent of control (NTRK2 (human)): 36%
- kinase still bound, per cent of control (NUAK1 (human)): 17%
- kinase still bound, per cent of control (PAK3 (human)): 37%
- kinase still bound, per cent of control (PAK4 (human)): 97%
- kinase still bound, per cent of control (PDGFRA (human)): 100%
- kinase still bound, per cent of control [4]: 100%
- kinase still bound, per cent of control (PRKAA1 (human)): 17%
- kinase still bound, per cent of control (PRKX (human)): 93%
- kinase still bound, per cent of control (PTK2 (human)): 75%
- kinase still bound, per cent of control (PTK6 (human)): 86%
- kinase still bound, per cent of control (RIPK1 (human)): 100%
- kinase still bound, per cent of control (SRMS (human)): 87%
- kinase still bound, per cent of control (STK32C (human)): 100%
- kinase still bound, per cent of control (TSSK1B (human)): 100%
- kinase still bound, per cent of control (YES1 (human)): 38%

SMILES: COc1cc(N2CCN(C)CC2)ccc1Nc1ncc2c(n1)N(C)c1sccc1C(=O)N2C
- kinase still bound, per cent of control [2]: 6.6%
- kinase still bound, per cent of control [3]: 90%
- kinase still bound, per cent of control (AKT2 (human)): 96%
- kinase still bound, per cent of control (BMPR2 (human)): 100%
- kinase still bound, per cent of control (BMX (human)): 100%
- kinase still bound, per cent of control (CDC2L2 (human)): 100%
- kinase still bound, per cent of control (CDK11B (human)): 85%
- kinase still bound, per cent of control (CDK14 (human)): 96%
- kinase still bound, per cent of control (CDK15 (human)): 92%
- kinase still bound, per cent of control (CDK17 (human)): 85%
- kinase still bound, per cent of control (CHEK1 (human)): 60%
- kinase still bound, per cent of control (DCLK1 (human)): 1.4%
- kinase still bound, per cent of control [1]: 82%
- kinase still bound, per cent of control (ERBB4 (human)): 88%
- kinase still bound, per cent of control (FER (human)): 36%
- kinase still bound, per cent of control (FRK (human)): 13%
- kinase still bound, per cent of control (IGF1R (human)): 100%
- kinase still bound, per cent of control (LIMK2 (human)): 83%
- kinase still bound, per cent of control (MAP2K2 (human)): 77%
- kinase still bound, per cent of control (MAP3K11 (human)): 100%
- kinase still bound, per cent of control (MAPK1 (human)): 83%
- kinase still bound, per cent of control (MAPK9 (human)): 82%
- kinase still bound, per cent of control (MARK1 (human)): 64%
- kinase still bound, per cent of control (MARK4 (human)): 59%
- kinase still bound, per cent of control (MET (human)): 96%
- kinase still bound, per cent of control (MUSK (human)): 100%
- kinase still bound, per cent of control (MYO3A (human)): 59%
- kinase still bound, per cent of control (NTRK2 (human)): 83%
- kinase still bound, per cent of control (NUAK1 (human)): 25%
- kinase still bound, per cent of control (PAK3 (human)): 100%
- kinase still bound, per cent of control (PAK4 (human)): 84%
- kinase still bound, per cent of control (PDGFRA (human)): 87%
- kinase still bound, per cent of control [4]: 74%
- kinase still bound, per cent of control (PRKAA1 (human)): 99%
- kinase still bound, per cent of control (PRKX (human)): 82%
- kinase still bound, per cent of control (PTK2 (human)): 13%
- kinase still bound, per cent of control (PTK6 (human)): 56%
- kinase still bound, per cent of control (RIPK1 (human)): 100%
- kinase still bound, per cent of control (SRMS (human)): 76%
- kinase still bound, per cent of control (STK32C (human)): 99%
- kinase still bound, per cent of control (TSSK1B (human)): 38%
- kinase still bound, per cent of control (YES1 (human)): 87%

SMILES: CS(=O)(=O)Nc1ccc(-c2cc(/C=C3\SC(=N)NC3=O)c[nH]c2=O)cc1
- kinase still bound, per cent of control (CHEK1 (human)): 32%
- kinase still bound, per cent of control (PDGFRA (human)): 8%

SMILES: N=C1NC(=O)/C(=C/c2ccc(-c3csc4ccccc34)o2)S1
- kinase still bound, per cent of control (MAPK1 (human)): 29%
- kinase still bound, per cent of control (NUAK1 (human)): 31%

SMILES: CS(=O)(=O)Nc1ccc(-c2ncc(/C=C3\SC(=N)NC3=O)s2)cc1
- kinase still bound, per cent of control [3]: 28%
- kinase still bound, per cent of control (PDGFRA (human)): 26%

SMILES: N=C1NC(=O)/C(=C/c2c[nH]c(=O)c(-c3ccc(N4CCNCC4)nc3)c2)S1
- kinase still bound, per cent of control (CHEK1 (human)): 3.4%
- kinase still bound, per cent of control (TSSK1B (human)): 9.8%

SMILES: N=C1NC(=O)/C(=C/c2ccc(-c3ccc(F)cc3O)o2)S1
- kinase still bound, per cent of control (CDK14 (human)): 19%
- kinase still bound, per cent of control (CDK15 (human)): 9.4%
- kinase still bound, per cent of control [4]: 24%
- kinase still bound, per cent of control (PRKAA1 (human)): 32%

SMILES: N=C1NC(=O)/C(=C/c2ccc(-c3ccccc3O)o2)S1
- kinase still bound, per cent of control (CDK15 (human)): 34%
- kinase still bound, per cent of control [4]: 21%

SMILES: CS(=O)(=O)Nc1ccc(-c2cncc(/C=C3\SC(=N)NC3=O)c2)cc1
- kinase still bound, per cent of control [4]: 22%

SMILES: N=C1NC(=O)/C(=C/c2ccc(-c3ccc(C(N)=O)cc3O)o2)S1
- kinase still bound, per cent of control (CDK14 (human)): 18%
- kinase still bound, per cent of control (CDK15 (human)): 13%
- kinase still bound, per cent of control (CDK17 (human)): 28%
- kinase still bound, per cent of control (SRMS (human)): 33%
